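Dose response: 5 concentrations. Exposure: 48 h. Format: 96-well plates. Endpoint: linear interpolation; highest concentration if not reached. GI50 is the concentration that inhibits growth by half.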 Calls of active or inactive are those of the source. Rule as the data show it: active = GI50 up to about 1.1 µM and inactive = higher.
What was measured:
Test in all cases: NCI anticancer screen, dose series, 48 h
[1] = system: RPMI-8226
[2] = system: K562
[3] = system: HL-60
[4] = system: DU-145
[5] = system: SNB-75
[6] = system: UO-31
[7] = system: MDA-MB-231
[8] = system: NCI/ADR-RES
[9] = system: NCI-H226
[10] = system: TK-10
[11] = system: A498
[12] = system: LOX IMVI
[13] = system: SK-MEL-2
[14] = system: SNB-19
[15] = system: T47D
[16] = system: SF-539
[17] = system: SF-295
[18] = system: MOLT-4
[19] = system: NCI-H460
[20] = system: OVCAR-5

| Compound | GI50 [1] | GI50 [2] | GI50 [3] | GI50 [4] | GI50 [5] | GI50 [6] | GI50 [7] | GI50 [8] | GI50 [9] | GI50 [10] | GI50 [11] | GI50 [12] | GI50 [13] | GI50 [14] | GI50 [15] | GI50 [16] | GI50 [17] | GI50 [18] | GI50 [19] | GI50 [20] |
| --- | --- | --- | --- | --- | --- | --- | --- | --- | --- | --- | --- | --- | --- | --- | --- | --- | --- | --- | --- | --- |
| CN(C)c1ccc(C(=N/N=C2\C(=O)Nc3ccccc32)c2ccc(N(C)C)cc2)cc1 | 0.22 µM (active) | 0.196 µM (active) | 0.363 µM (active) | 1.91 µM (inactive) | 0.214 µM (active) | 2.01 µM (inactive) | 0.767 µM (active) | 0.218 µM (active) | 6.89 µM (inactive) | 1.73 µM (inactive) | 1.96 µM (inactive) | 0.748 µM (active) | 0.248 µM (active) | 1.22 µM (inactive) | 0.771 µM (active) | 0.313 µM (active) | 0.308 µM (active) | 0.422 µM (active) | 0.405 µM (active) | 3.72 µM (inactive) |
| Cc1cc2c(Br)cc(Br)c(O)c2nc1C(=O)c1ccccc1 | 22.4 µM (inactive) | 10.4 µM (inactive) | 4.4 µM (inactive) | 17 µM (inactive) | > 74.1 µM (inactive) | 12.2 µM (inactive) | 20 µM (inactive) | 4.01 µM (inactive) | > 51.1 µM (inactive) | 28.4 µM (inactive) | 20.7 µM (inactive) | 10.4 µM (inactive) | > 61.1 µM (inactive) | 24.9 µM (inactive) | 8.17 µM (inactive) | 19.1 µM (inactive) | 10.6 µM (inactive) | 24.3 µM (inactive) | 10.6 µM (inactive) | > 45.1 µM (inactive) |
| CCC(C)OC(=O)/C(Br)=C1/OC(=O)c2ccccc2-c2ccccc21 (stereo not given) | 22.3 µM (inactive) | 4.42 µM (inactive) | > 100 µM (inactive) | > 100 µM (inactive) | 31.6 µM (inactive) | 25.2 µM (inactive) | > 10 µM (inactive) | 20.4 µM (inactive) | 55.2 µM (inactive) | 19.4 µM (inactive) | 40.7 µM (inactive) | 18.2 µM (inactive) | 24.2 µM (inactive) | 49.5 µM (inactive) | 58.2 µM (inactive) | 24 µM (inactive) | 35.6 µM (inactive) | 6.85 µM (inactive) | 26.2 µM (inactive) | 80 µM (inactive) |
| CN(C)c1ccc(/C=C(\NC(=O)c2ccccc2)C(=O)Nc2ccccc2C(=O)NCc2ccccc2)cc1 | 67.5 µM (inactive) | > 100 µM (inactive) | 40.6 µM (inactive) | > 100 µM (inactive) | 0.0955 µM (active) | > 100 µM (inactive) | > 100 µM (inactive) | 43.1 µM (inactive) | 50.8 µM (inactive) | > 100 µM (inactive) | > 100 µM (inactive) | > 100 µM (inactive) | > 100 µM (inactive) | 85.5 µM (inactive) | > 100 µM (inactive) | 66.5 µM (inactive) | > 100 µM (inactive) | 56.4 µM (inactive) | > 100 µM (inactive) | > 100 µM (inactive) |
| C[C@]12CC[C@H]3[C@@H](CCC4=CC(=O)C=C[C@@]43OC(=O)C(F)(F)F)[C@@H]1CCC2=O | > 100 µM (inactive) | > 100 µM (inactive) | > 100 µM (inactive) | > 100 µM (inactive) | > 100 µM (inactive) | > 100 µM (inactive) | > 100 µM (inactive) | > 65.8 µM (inactive) | > 100 µM (inactive) | > 100 µM (inactive) | > 100 µM (inactive) | > 100 µM (inactive) | > 100 µM (inactive) | > 33.6 µM (inactive) | > 100 µM (inactive) | > 100 µM (inactive) | > 100 µM (inactive) | > 95.5 µM (inactive) | > 100 µM (inactive) | > 100 µM (inactive) |
| CCC1(OC(=O)CNC)C(=O)OCc2c1cc1n(c2=O)Cc2cc3ccccc3nc2-1 (stereo not given) | < 0.0137 µM (active) | 0.0303 µM (active) | < 0.01 µM (active) | < 0.01 µM (active) | < 0.0104 µM (active) | < 0.0125 µM (active) | 0.31 µM (active) | < 0.01 µM (active) | < 0.01 µM (active) | 1.29 µM (inactive) | < 0.0179 µM (active) | < 0.01 µM (active) | 0.155 µM (active) | < 0.01 µM (active) | < 0.01 µM (active) | < 0.01 µM (active) | < 0.01 µM (active) | < 0.01 µM (active) | < 0.01 µM (active) | 0.0247 µM (active) |
| CC(C)(C)C#CI1OC(=O)c2ccccc21 | 1.81 µM (inactive) | 1.91 µM (inactive) | 0.513 µM (active) | 6.08 µM (inactive) | 7.28 µM (inactive) | 4.41 µM (inactive) | 5.94 µM (inactive) | 5.52 µM (inactive) | 4.63 µM (inactive) | 3.86 µM (inactive) | 6.07 µM (inactive) | 1.09 µM (active) | 10.7 µM (inactive) | 9.27 µM (inactive) | 3.68 µM (inactive) | 2.82 µM (inactive) | 14.3 µM (inactive) | 1.02 µM (active) | 4.62 µM (inactive) | 7.67 µM (inactive) |
